Where two headings read alike, the source gives them in different places.
Tests used:
[1] = molecular target: T1, Cyclin Dependent Kinase 4/Cyclin D3 (CDK4-cycD3) (Homo sapiens, UniProt P11802); experiment: CDK4-cycD3 TR-FRET (LANCE) enzyme assay; type: biochemical; settings: Table O, enzymatic assay
T1 construct: purchased Carna Biosciences 04-105
Description: (§1) Cyclin Dependent Kinase 1/Cyclin A2 (CDK1-cycA2), Cyclin Dependent Kinase 2/Cyclin E1 (CDK2-cycE1), Cyclin Dependent Kinase 4/Cyclin D3 (CDK4-cycD3) and Cyclin Dependent Kinase 6/Cyclin D3 (CDK6-cycD3) enzyme assays were carried out as described below.
(iii) CDK4-cycD3 TR-FRET (LANCE®)
(§2) An Echo acoustic dispenser is used to create dose responses of compound dissolved in DMSO into a 384-well microplate. A 5 μL volume of enzyme mix is added to the well, and pre-incubated with compound for 30 minutes. […] Buffer conditions are 50 mM HEPES, pH 7.5, 10 mM MgCl2, 2 mM TCEP, 0.05% BGG and 0.01% Brij 35. The reaction is quenched with 5 μL of EDTA in detection buffer (15 mM [EDTA final]). Finally, a 5 μL TR-FRET detection mix is added to the quenched reaction, which includes Europium labeled anti-phospho-4E-BP1. […] Signal is a ratio of the Acceptor and Donor fluorescence. Inhibition constants are calculated via the Morrison equation.

[2] = molecular target: T2, Cyclin Dependent Kinase 2/Cyclin E1 (CDK2-cycE1) (Homo sapiens, UniProt P24941); experiment: CDK2-cycE1 TR-FRET (LANCE) enzyme assay; type: biochemical; settings: for FS CDK1/CDK2 / FS CDK4/CDK2: fold selectivity; for increased fold-selectivity CDK1/CDK2 over Comparator C: (+) sign after FS CDK1/CDK2; for increased fold-selectivity CDK4/CDK2 over Comparator C: (+) sign after FS CDK4/CDK2;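 as to improvement in potency against CDK2 (Ki) over Comparator C: fold lower CDK2 Ki than comparator c (Ki 0.032 µM)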
T2 construct: purchased ProQinase 0050-0055-1
Description: as §1
(ii) CDK2-cycE1 TR-FRET (LANCE®)
as §2, with “anti-phospho-MBP.” for “anti-phospho-4E-BP1.”, “equation. Enzyme source of CDK2-cycE1 is ProQinase, catalog #: 0050-0055-1.” for “equation.”

[3] = test system: SKOV-3 (ATCC HTB-77); experiment: SKOV-3 EdU incorporation cell proliferation assay (CDK4/6-dependent); type: cell-based; settings: Homo sapiens, cellular assay, read-out: CDK4/6 SKOV-3 IC50
Description: (§3) (i) OVISE and SKOV-3 EdU Incorporation Cell Proliferation Assays
(§4) Ovarian cancer cell proliferation is measured by incorporation of EdU (5-ethynyl-2′-deoxyuridine) into newly synthesized DNA. CDK2-dependent proliferation is determined using OVISE (JCRB1043, CCNE1-amplified) while CDK4/6-dependent effect is determined with SKOV-3 (ATCC HTB-77) which is not CCNE1-amplified.
(§5) Cells are plated in 384-well plates in RPMI medium supplemented with 10% FBS. Compounds are added at desired concentrations with a final DMSO content of 0.5%, and cells incubated at 37° C./5% CO2 for 16 hours. EdU (Life Technologies) is added to a final concentration of 0.5 μM and incubation continued for 8 hours, followed by fixation with 4% paraformaldehyde. […] Images are acquired using Yokogawa CQ1 imaging cytometer with a 10×objective. […] The IC50 for inhibition of cell division is determined by fitting the fraction of EdU-positive cells as a function of compound dose using a 4-parameter logistic model.

[4] = molecular target: T3, Cyclin Dependent Kinase 1/Cyclin A2 (CDK1-cycA2) (Homo sapiens, UniProt P06493); experiment: CDK1-cycA2 TR-FRET (Lance) enzyme assay; type: biochemical; settings: Table O, enzymatic assay
T3 construct: purchased ProQinase 0134-0054-1
T3 sequence (P06493 whole entry): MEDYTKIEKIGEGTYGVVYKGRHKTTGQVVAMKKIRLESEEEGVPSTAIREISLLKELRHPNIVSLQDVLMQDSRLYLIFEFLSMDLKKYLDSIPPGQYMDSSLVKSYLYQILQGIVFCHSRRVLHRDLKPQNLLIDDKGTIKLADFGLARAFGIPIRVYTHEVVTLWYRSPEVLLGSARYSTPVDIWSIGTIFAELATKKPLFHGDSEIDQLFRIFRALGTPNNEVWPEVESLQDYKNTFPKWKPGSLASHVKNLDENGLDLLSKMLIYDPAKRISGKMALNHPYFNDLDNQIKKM
T3 sequence (P20248 whole entry partner): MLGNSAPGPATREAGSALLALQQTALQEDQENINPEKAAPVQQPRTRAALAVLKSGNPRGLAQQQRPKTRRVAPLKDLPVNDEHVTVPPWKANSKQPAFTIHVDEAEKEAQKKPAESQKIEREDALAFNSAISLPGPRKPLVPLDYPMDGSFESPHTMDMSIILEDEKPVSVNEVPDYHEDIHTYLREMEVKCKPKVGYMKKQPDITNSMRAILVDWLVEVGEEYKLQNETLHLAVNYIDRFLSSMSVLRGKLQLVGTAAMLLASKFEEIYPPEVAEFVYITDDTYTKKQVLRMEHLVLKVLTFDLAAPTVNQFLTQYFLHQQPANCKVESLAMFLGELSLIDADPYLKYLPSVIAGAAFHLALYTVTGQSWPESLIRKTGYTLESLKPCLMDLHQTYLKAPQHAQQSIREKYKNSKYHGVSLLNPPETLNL
Description: as §1
(1) CDK1-cycA2 TR-FRET (Lance®)
as §2

[5] = test system: OVISE (JCRB1043, CCNE1-amplified); experiment: OVISE EdU incorporation cell proliferation assay (CDK2-dependent); type: cell-based; settings: for IC50: cellular assay, read-out: CDK2 OVISE IC50; for FS SKOV-3/OVISE: fold selectivity; for increased fold-selectivity SKOV-3/OVISE over Comparator C: (+) sign after FS SKOV-3/OVISE; for improvement in CDK2 OVISE cell potency over Comparator C: in brackets after OVISE IC50, Comparator C 5.5 μM
Description: as §3, §4, §5

[6] = Table O, enzymatic assay, read-out: CDK2 Ki
[7] = Table O, enzymatic CDK1 Ki over CDK2 Ki
[8] = Table O, enzymatic CDK4 Ki over CDK2 Ki
[9] = Table Q, enzymatic assay, read-out: CDK2 Ki
[10] = Table O, cellular SKOV-3 IC50 over OVISE IC50

T1 sequence (P11802 whole entry): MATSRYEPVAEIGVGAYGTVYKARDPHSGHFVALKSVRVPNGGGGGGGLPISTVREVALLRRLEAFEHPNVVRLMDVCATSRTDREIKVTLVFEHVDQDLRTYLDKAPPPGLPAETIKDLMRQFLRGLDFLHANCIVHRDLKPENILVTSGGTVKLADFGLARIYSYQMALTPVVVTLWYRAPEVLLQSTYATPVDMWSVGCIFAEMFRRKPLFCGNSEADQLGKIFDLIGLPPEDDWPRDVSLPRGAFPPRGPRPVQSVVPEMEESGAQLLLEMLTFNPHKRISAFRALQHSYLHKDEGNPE
T1 sequence (P30281 whole entry partner): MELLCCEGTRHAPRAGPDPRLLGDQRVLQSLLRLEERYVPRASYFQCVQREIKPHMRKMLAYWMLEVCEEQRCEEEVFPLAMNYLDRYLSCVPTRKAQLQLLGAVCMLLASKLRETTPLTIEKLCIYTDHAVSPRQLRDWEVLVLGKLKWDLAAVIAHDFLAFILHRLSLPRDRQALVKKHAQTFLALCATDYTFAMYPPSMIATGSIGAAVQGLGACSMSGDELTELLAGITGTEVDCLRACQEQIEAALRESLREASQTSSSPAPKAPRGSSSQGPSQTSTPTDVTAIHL

CC(C)NC(=O)O[C@@H]1CC[C@H](c2cc(Nc3cc(=O)[nH]cn3)n[nH]2)C1 [Example 2CC, (1R,3S)-3-(3-((6-oxo-1,6-dihydropyrimidin-4-yl)amino)-1H-pyrazol-5-yl)cyclopentyl isopropylcarbamate]
Ki [1]: 130 nM
improvement in potency against CDK2 (Ki) over Comparator C [2]: 97 fold
Ki [2, 6]: 0.33 nM
FS CDK1/CDK2 [2, 7]: 100
FS CDK4/CDK2 [2, 8]: 390
increased fold-selectivity CDK1/CDK2 over Comparator C ([2]; Table Q): (+) (The (+) sign in Table Q signifies desirable increased fold-selectivity of the exemplary compounds over Comparator C)
increased fold-selectivity CDK4/CDK2 over Comparator C ([2]; Table Q): (+) (The (+) sign in Table Q signifies desirable increased fold-selectivity of the exemplary compounds over Comparator C)
Ki [2, 9]: 0.33 nM
FS CDK1/CDK2 ([2]; Table Q, enzymatic): 100
FS CDK4/CDK2 ([2]; Table Q, enzymatic): 390
Ki ([2]; read-out: CDK2 activity / potency (enzymatic assay)): ≤ 1 nM
IC50 ([3]; SK-OV-3, Table O): > 20000 nM
IC50 ([3]; SK-OV-3, Table Q): > 20000 nM
Ki [4]: 34 nM
IC50 ([5]; Table O): 2000 nM
FS SKOV-3/OVISE [5, 10]: >10
increased fold-selectivity SKOV-3/OVISE over Comparator C ([5]; Table Q): (+) (The (+) sign in Table Q signifies desirable increased fold-selectivity of the exemplary compounds over Comparator C)
FS SKOV-3/OVISE ([5]; Table Q, cellular): > 10
improvement in CDK2 OVISE cell potency over Comparator C ([5]; Table Q): 2.8 fold

CC(C)NC(=O)O[C@@H]1CC[C@H](c2cc(Nc3ccc(-n4cccn4)nc3)n[nH]2)C1 [Example 2D, (1R,3S)-3-(3-((6-(1H-pyrazol-1-yl)pyridin-3-yl)amino)-1H-pyrazol-5-yl)cyclopentyl isopropylcarbamate]
Ki [1]: 480 nM
improvement in potency against CDK2 (Ki) over Comparator C [2]: 2.3 fold
Ki [2, 6]: 14 nM
FS CDK1/CDK2 [2, 7]: 25
FS CDK4/CDK2 [2, 8]: 34
increased fold-selectivity CDK4/CDK2 over Comparator C ([2]; Table Q): (+) (The (+) sign in Table Q signifies desirable increased fold-selectivity of the exemplary compounds over Comparator C)
Ki [2, 9]: 14 nM
FS CDK1/CDK2 ([2]; Table Q, enzymatic): 25
FS CDK4/CDK2 ([2]; Table Q, enzymatic): 34
IC50 ([3]; SK-OV-3, Table O): 14000 nM
IC50 ([3]; SK-OV-3, Table Q): 14000 nM
Ki [4]: 350 nM
IC50 ([5]; Table O): 700 nM
FS SKOV-3/OVISE [5, 10]: 20
increased fold-selectivity SKOV-3/OVISE over Comparator C ([5]; Table Q): (+) (The (+) sign in Table Q signifies desirable increased fold-selectivity of the exemplary compounds over Comparator C)
FS SKOV-3/OVISE ([5]; Table Q, cellular): 20
improvement in CDK2 OVISE cell potency over Comparator C ([5]; Table Q): 7.9 fold

CC(C)NC(=O)O[C@@H]1CC[C@H](c2cc(Nc3ccc(-n4cccn4)cn3)n[nH]2)C1 [Example 2DD, (1R,3S)-3-(3-((5-(1H-pyrazol-1-yl)pyridin-2-yl)amino)-1H-pyrazol-5-yl)cyclopentyl isopropylcarbamate]
Ki [1]: 350 nM
improvement in potency against CDK2 (Ki) over Comparator C [2]: 2.5 fold
Ki [2, 6]: 13 nM
FS CDK1/CDK2 [2, 7]: 52
FS CDK4/CDK2 [2, 8]: 27
increased fold-selectivity CDK1/CDK2 over Comparator C ([2]; Table Q): (+) (The (+) sign in Table Q signifies desirable increased fold-selectivity of the exemplary compounds over Comparator C)
increased fold-selectivity CDK4/CDK2 over Comparator C ([2]; Table Q): (+) (The (+) sign in Table Q signifies desirable increased fold-selectivity of the exemplary compounds over Comparator C)
Ki [2, 9]: 13 nM
FS CDK1/CDK2 ([2]; Table Q, enzymatic): 52
FS CDK4/CDK2 ([2]; Table Q, enzymatic): 27
IC50 ([3]; SK-OV-3, Table O): > 20000 nM
IC50 ([3]; SK-OV-3, Table Q): 14000 nM
Ki [4]: 680 nM
IC50 ([5]; Table O): 610 nM
FS SKOV-3/OVISE [5, 10]: 23
increased fold-selectivity SKOV-3/OVISE over Comparator C ([5]; Table Q): (+) (The (+) sign in Table Q signifies desirable increased fold-selectivity of the exemplary compounds over Comparator C)
FS SKOV-3/OVISE ([5]; Table Q, cellular): 23
improvement in CDK2 OVISE cell potency over Comparator C ([5]; Table Q): 9 fold

COc1ncc(Nc2cc([C@H]3CC[C@@H](OC(=O)NC(C)C)C3)[nH]n2)cn1 [Example 2FF, (1R,3S)-3-(3-((2-methoxypyrimidin-5-yl)amino)-1H-pyrazol-5-yl)cyclopentyl isopropylcarbamate]
Ki [1]: 950 nM
Ki [2, 6]: 14 nM
FS CDK1/CDK2 [2, 7]: 23
FS CDK4/CDK2 [2, 8]: 68
IC50 ([3]; SK-OV-3, Table O): > 20000 nM
Ki [4]: 320 nM
IC50 ([5]; Table O): 1200 nM
FS SKOV-3/OVISE [5, 10]: >17

CNc1ncc(Nc2cc([C@H]3CC[C@@H](OC(=O)NC(C)C)C3)[nH]n2)cn1 [Example 2GG, (1R,3S)-3-(3-((2-(methylamino)pyrimidin-5-yl)amino)-1H-pyrazol-5-yl)cyclopentyl isopropylcarbamate]
Ki [1]: 15000 nM
Ki [2, 6]: 480 nM
FS CDK1/CDK2 [2, 7]: 18
FS CDK4/CDK2 [2, 8]: 31
IC50 ([3]; SK-OV-3, Table O): > 20000 nM
Ki [4]: 8800 nM
IC50 ([5]; Table O): > 20000 nM
FS SKOV-3/OVISE [5, 10]: 1

COCCn1nc(Nc2cc([C@H]3CC[C@@H](OC(=O)NC(C)C)C3)[nH]n2)ccc1=O [Example 2II, (1R,3S)-3-(3-((1-(2-methoxyethyl)-6-oxo-1,6-dihydropyridazin-3-y1)amino)-1H-pyrazol-5-y1)cyclopentyl isopropylcarbamate]
Ki [1]: 950 nM
Ki [2, 6]: 9.6 nM
FS CDK1/CDK2 [2, 7]: 11
FS CDK4/CDK2 [2, 8]: 99
IC50 ([3]; SK-OV-3, Table O): > 20000 nM
Ki [4]: 110 nM
IC50 ([5]; Table O): 2600 nM
FS SKOV-3/OVISE [5, 10]: >7.7

CC(C)NC(=O)O[C@@H]1CC[C@H](c2cc(Nc3ccc(-n4ccnc4)nc3)n[nH]2)C1 [Example 2J, (1R,3S)-3-(3-((6-(1H-imidazol-1-yl)pyridin-3-yl)amino)-1H-pyrazol-5-yl)cyclopentyl isopropylcarbamate]
Ki [1]: 230 nM
Ki [2, 6]: 10 nM
FS CDK1/CDK2 [2, 7]: 20
FS CDK4/CDK2 [2, 8]: 23
IC50 ([3]; SK-OV-3, Table O): 11000 nM
Ki [4]: 200 nM
IC50 ([5]; Table O): 440 nM
FS SKOV-3/OVISE [5, 10]: 25

COc1ccc(Nc2cc([C@H]3CC[C@@H](OC(=O)NC(C)C)C3)[nH]n2)nn1 [Example 2JJ, (1R,3S)-3-(3-((6-methoxypyridazin-3-yl)amino)-1H-pyrazol-5-yl)cyclopentyl isopropylcarbamate]
Ki [1]: 1200 nM
Ki [2, 6]: 77 nM
FS CDK1/CDK2 [2, 7]: 16
FS CDK4/CDK2 [2, 8]: 16
IC50 ([3]; SK-OV-3, Table O): 3.2 nM
Ki [4]: 1200 nM
IC50 ([5]; Table O): 4100 nM
FS SKOV-3/OVISE [5, 10]: <1

— patent publication US20240425478A1, “CYCLOPENTYLPYRAZOLE CDK2 INHIBITORS” (Genentech, Inc., priority 2021, published 2024)
